# From patent publication US20220243211A1, “PEPTIDE NUCLEIC ACID COMPOSITIONS WITH MODIFIED HOOGSTEEN BINDING SEGMENTS AND METHODS OF USE THEREOF” (Yale University, priority 2019, published 2022)
# Test system: CFBE cells
# Experiment: Comet assay for DNA damage
# Format: cell-based, human
# Details: versus untreated cells
# Protocol: FIG. 6 is a bar graph showing the results of a comet assay for DNA damage. TriTek Comet Score FreeWare was used to calculate comet tail moment for each treatment condition. Plots show the average comet tail moment which indicates the extent of DNA damage. Error bars represent the SEM; ****P<0.0001 by unpaired t-test.
# 50,000 CFBE cells were plated per well in 6-well plates. The following day, the cells were treated with the indicated PNA containing NPs, treated with lipfectamine alone, or transfected with CRISPR-based editing reagents. The next day, cells were collected and prepared using the Trevigen Comet Assay kit per the manufacturer's protocol (Trevigen, Gaithersburg, Md.). Briefly, cells were suspended in agarose and added to comet slides. After the agarose solidified, the slides were incubated for 1 hour in lysis solution, placed in electrophoresis solution for 30 min, then run at 21 V for 1 hour at 4° C. The slides were then placed in acetate solution for 30 min, then incubated in 70% ethanol solution for 30 min. The comet slides were then dried, stained with SYBR Green for 30 min and then visualized using an EVOS microscope. TriTek Comet Score freeware was used to analyze the images. The average comet tail moment was plotted for each condition. Error bars represent the SEM; ****P<0.0001 by unpaired t-test. […]
substance,measurement,value
"H-KKK-TJTJJTTT-OOO-TTTCCTCTATGGGTAAG-KKK-NH2 [γhCF PNA-h] (TNTNNTTTTTTCCTCTATGGGTAAG; listed as DNA, chemistry not fully specified) [tail clamp PNA targeting human CFTR gene with MPγ monomers in Hoogsteen domain]",comet tail moment,no significant change in comet tail moment
